Data as given in patent US8552029B2, “Quinoline derivatives and uses of the same” (National Taipei University of Technology, priority 2011, dated 2013).

Which melting point does the source give for `Nc1ccc(-n2cc(C(=O)O)c(=O)c3cc(F)c(N/N=C/c4ccncc4)cc32)c(F)c1` [Compound 11, 1-(4-amino-2-fluorophenyl)-6-fluoro-4-oxo-7-[2-(pyridin-4-ylmethylene)hydrazinyl]-1,4-dihydroquinoline-3-carboxylic acid] here?
The melting point was 176 to 178 °C.

For `COc1ccc(/C=N/Nc2cc3c(cc2F)c(=O)c(C(=O)O)cn3-c2ccc(N)cc2)cc1` [Compound 9, 1-(4-aminophenyl)-6-fluoro-7-(2-(4-methoxybenzylidene)hydrazinyl)-4-oxo-1,4-dihydroquinoline-3-carboxylic acid], which melting point is on record?
The melting point was 307 to 309 °C.

For `Nc1ccc(-n2cc(C(=O)O)c(=O)c3cc(F)c(N/N=C/c4ccc(F)cc4)cc32)cc1` [Compound 8, 1-(4-aminophenyl)-6-fluoro-7-[2-(4-fluorobenzylidene)hydrazinyl]-4-oxo-1,4-dihydroquinoline-3-carboxylic acid], which melting point is on record?
The melting point was 308 to 310 °C.

For `Nc1ccc(-n2cc(C(=O)O)c(=O)c3cc(F)c(N/N=C/c4ccccc4)cc32)cc1` [Compound 7, 1-(4-aminophenyl)-7-(2-benzylidenehydrazinyl)-6-fluoro-4-oxo-1,4-dihydroquinoline-3-carboxylic acid], which melting point is on record?
The melting point was 314 to 316 °C.

With `COc1ccc(/C=N/Nc2cc3c(cc2F)c(=O)c(C(=O)O)cn3-c2ccc(N)cc2F)cc1` [Compound 10, 1-(4-amino-2-fluorophenyl)-6-fluoro-7-[2-(4-methoxybenzylidene)hydrazinyl]-4-oxo-1,4-dihydroquinoline-3-carboxylic acid] as the molecule, how does the melting point read?
The melting point was 321 to 322 °C.
